Results published in patent US20130060024A1, “Compounds useful for treating neurodegenerative disorders” (SATORI PHARMACEUTICALS, INC., priority 2011, published 2013).
Like-named read-outs stand apart in the source and are kept apart here.

Legend:
Assay type in all cases: cell-based
Conditions in all cases: Homo sapiens
Aβ-38 = Aβ-38 MSD 3-PLEX ELISA, conditioned media of 2B7 cells
Description: (§1) Assays were conducted to determine the ability of a Compound of Formula I to modulate […], […], and Aβ-38. Human (6E10) Ab 3-PLEX ELISA kits were purchased from Meso Scale Discovery Labs, 9328 Gaither Road, Gaithersburg, Md. 20877 (Catalog Number […]-3). Plates with capture antibodies were blocked for 1-2 hours at room temperature with 150 μL of the manufactures blocking reagent. Cultured 2B7 cells in 96 well plate with 250 μL of media per well until confluent; Prepared serial dilutions of compounds in DMSO at 100× the final desired concentration; Washed wells with 2B7 cells 1× with 250 μL of media; Diluted DMSO stocks 1:100 into media: Added 250 μL of media containing compounds (1% DMSO) to wells with 2B7 cells for 5 hours at 37° C. Diluted conditioned media: 1 part media with 1% DMSO and 1 part blocking buffer; 150 μL of the 250 μL of conditioned media were used. Seven point standard curve samples were prepared that contained Aβ-42, Aβ-40, and Aβ-38. The highest concentration of Aβ-42 and Aβ-38 was 3,000 pg/mL and the highest concentration of Aβ-40 was 10,000 pg/mL. Subsequent serial dilutions were 1:3 and the final composition of each sample was 1 part blocking buffer and 1 part cell medium containing 1% DMSO. Blocked plates are washed 5× with MSD wash buffer with a plate washer; 25 μL of detection antibody and blocker G reagent in MSD blocking solution was added; 25 μL of samples (1 part conditioned media containing 1% DMSO and 1 part MSD blocking buffer) were then added; Plates were incubated overnight at 4 degrees C. or 2 hours at room temperature. Washed wells 5× with MSD wash buffer; Added 150 μL 2×MSD read buffer; Read with MSD imager. Aβ peptide levels for each peptide were calculated from the standard curve using the MSD software provided with the MSD 2400 Imager. Percent vehicle values for each compound dosage were then calculated and fit to a 4 parameter curve generating IC50 values.

Aβ-42 = Aβ-42 MSD 3-PLEX ELISA, conditioned media of 2B7 cells
Description: as §1

Aβ-40 = Aβ-40 MSD 3-PLEX ELISA, conditioned media of 2B7 cells
Description: as §1

[1] = 2B7 cells, 5 hours at 37° C., 1% DMSO, read-out: Aβ 38 IC50
[2] = 2B7 cells, 5 hours at 37° C., 1% DMSO, read-out: Aβ 42 IC50
[3] = 5 h, read-out: Aβ 38 DR IC50 Inflection
[4] = 5 h, read-out: Aβ 40 DR IC50 Inflection
[5] = 2B7 cells, 5 hours at 37° C., 1% DMSO, read-out: Aβ 40 IC50
[6] = 5 h, read-out: Aβ 42 DR IC50 Inflection

| Compound | IC50 (Aβ-38; [1]) | IC50 (Aβ-42; [2]) | IC50 (Aβ-38; [3]) | IC50 (Aβ-40; [4]) | IC50 (Aβ-40; [5]) | IC50 (Aβ-42; [6]) |
| --- | --- | --- | --- | --- | --- | --- |
| CCO[C@@H]([C@H]1C[C@@H](C)[C@H]2[C@H](O1)[C@H](O)[C@@]1(C)[C@@H]3CC[C@H]4C(C)(C)[C@@H](OC(=O)NCCNS(=O)(=O)C(F)(F)F)CC[C@@]45C[C@@]35CC[C@]21C)C(C)(C)O [Compound I-1] | 1000 to 5000 nM | 501 to 1000 nM |  |  |  |  |
| CCO[C@@H]([C@H]1C[C@@H](C)[C@H]2[C@H](O1)[C@H](O)[C@@]1(C)[C@@H]3CC[C@H]4C(C)(C)[C@@H](OC(=O)N(C)C5CN(C)C5)CC[C@@]45C[C@@]35CC[C@]21C)C(C)(C)O [Compound I-2] | 100 to 500 nM | < 100 nM | < 100 nM | > 5000 nM | 1000 to 5000 nM | < 100 nM |
| CCO[C@@H]([C@H]1C[C@@H](C)[C@H]2[C@H](O1)[C@H](O)[C@@]1(C)[C@@H]3CC[C@H]4C(C)(C)[C@@H](OC(=O)N5CCNC(C(F)(F)F)C5)CC[C@@]45C[C@@]35CC[C@]21C)C(C)(C)O (some centres unmarked) [Compound I-3] | 1000 to 5000 nM | 100 to 500 nM |  |  |  |  |
| CCO[C@@H]([C@H]1C[C@@H](C)[C@H]2[C@H](O1)[C@H](O)[C@@]1(C)[C@@H]3CC[C@H]4C(C)(C)[C@@H](OC(=O)N5CCN(C6COC6)CC5)CC[C@@]45C[C@@]35CC[C@]21C)C(C)(C)O [Compound I-4] | 1000 to 5000 nM | 100 to 500 nM |  |  | > 5000 nM | 100 to 500 nM |
| CCO[C@@H]([C@H]1C[C@@H](C)[C@H]2[C@H](O1)[C@H](O)[C@@]1(C)[C@@H]3CC[C@H]4C(C)(C)[C@@H](OC(=O)N5CCN(CC(=O)O)CC5)CC[C@@]45C[C@@]35CC[C@]21C)C(C)(C)O [Compound I-5] |  | 100 to 500 nM |  |  | > 5000 nM | 100 to 500 nM |
| CCO[C@@H]([C@H]1C[C@@H](C)[C@H]2[C@H](O1)[C@H](O)[C@@]1(C)[C@@H]3CC[C@H]4C(C)(C)[C@@H](OC(=O)N(C)CC(=O)O)CC[C@@]45C[C@@]35CC[C@]21C)C(C)(C)O [Compound I-6] |  | 501 to 1000 nM |  |  |  |  |
| CCO[C@@H]([C@H]1C[C@@H](C)[C@H]2[C@H](O1)[C@H](O)[C@@]1(C)[C@@H]3CC[C@H]4C(C)(C)[C@@H](OC(=O)N5CCN(CCOC)CC5)CC[C@@]45C[C@@]35CC[C@]21C)C(C)(C)O [Compound I-7] | 501 to 1000 nM | 100 to 500 nM |  |  |  | 100 to 500 nM |
| CCO[C@@H]([C@H]1C[C@@H](C)[C@H]2[C@H](O1)[C@H](O)[C@@]1(C)[C@@H]3CC[C@H]4C(C)(C)[C@@H](OC(=O)N5CCN(C)CC5)CC[C@@]45C[C@@]35CC[C@]21C)C(C)(C)O [Compound I-8] | 100 to 500 nM | < 100 nM | < 100 nM | > 5000 nM | 1000 to 5000 nM | < 100 nM |
| CCO[C@@H]([C@H]1C[C@@H](C)[C@H]2[C@H](O1)[C@H](O)[C@@]1(C)[C@@H]3CC[C@H]4C(C)(C)[C@@H](OC(=O)N5CC(NC)C5)CC[C@@]45C[C@@]35CC[C@]21C)C(C)(C)O [Compound I-9] | 100 to 500 nM | 100 to 500 nM | 100 to 500 nM |  | 1000 to 5000 nM | 100 to 500 nM |
| CCO[C@@H]([C@H]1C[C@@H](C)[C@H]2[C@H](O1)[C@H](O)[C@@]1(C)[C@@H]3CC[C@H]4C(C)(C)[C@@H](OC(=O)N5CCNCC5)CC[C@@]45C[C@@]35CC[C@]21C)C(C)(C)O [Compound I-10] | 100 to 500 nM | < 100 nM |  |  |  |  |
| CCO[C@@H]([C@H]1C[C@@H](C)[C@H]2[C@H](O1)[C@H](O)[C@@]1(C)[C@@H]3CC[C@H]4C(C)(C)[C@@H](OC(=O)NCCN(C)C)CC[C@@]45C[C@@]35CC[C@]21C)C(C)(C)O [Compound I-11] |  | 100 to 500 nM |  |  |  | 100 to 500 nM |
| CCO[C@@H]([C@H]1C[C@@H](C)[C@H]2[C@H](O1)[C@H](O)[C@@]1(C)[C@@H]3CC[C@H]4C(C)(C)[C@@H](OC(=O)NCCN5CCOCC5)CC[C@@]45C[C@@]35CC[C@]21C)C(C)(C)O [Compound I-12] | 1000 to 5000 nM | 100 to 500 nM |  |  | > 5000 nM | 100 to 500 nM |
| CCO[C@@H]([C@H]1C[C@@H](C)[C@H]2[C@H](O1)[C@H](O)[C@@]1(C)[C@@H]3CC[C@H]4C(C)(C)[C@@H](OC(=O)NCCN5CC(OC)C5)CC[C@@]45C[C@@]35CC[C@]21C)C(C)(C)O [Compound I-13] | 1000 to 5000 nM | 100 to 500 nM |  |  |  | 100 to 500 nM |
| CCO[C@@H]([C@H]1C[C@@H](C)[C@H]2[C@H](O1)[C@H](O)[C@@]1(C)[C@@H]3CC[C@H]4C(C)(C)[C@@H](OC(=O)NCCN5CC(F)C5)CC[C@@]45C[C@@]35CC[C@]21C)C(C)(C)O [Compound I-14] |  | 100 to 500 nM |  |  |  | 100 to 500 nM |
| CCO[C@@H]([C@H]1C[C@@H](C)[C@H]2[C@H](O1)[C@H](O)[C@@]1(C)[C@@H]3CC[C@H]4C(C)(C)[C@@H](OC(=O)NCCN5CC(O)C5)CC[C@@]45C[C@@]35CC[C@]21C)C(C)(C)O [Compound I-15] |  | 100 to 500 nM |  |  |  | 100 to 500 nM |
| CCO[C@@H]([C@H]1C[C@@H](C)[C@H]2[C@H](O1)[C@H](O)[C@@]1(C)[C@@H]3CC[C@H]4C(C)(C)[C@@H](OC(=O)NCCN5CCC5)CC[C@@]45C[C@@]35CC[C@]21C)C(C)(C)O [Compound I-16] |  | 100 to 500 nM |  |  |  | 100 to 500 nM |
| CCO[C@@H]([C@H]1C[C@@H](C)[C@H]2[C@H](O1)[C@H](O)[C@@]1(C)[C@@H]3CC[C@H]4C(C)(C)[C@@H](OC(=O)NCCN5CCN(C6COC6)CC5)CC[C@@]45C[C@@]35CC[C@]21C)C(C)(C)O [Compound I-17] | 100 to 500 nM | 100 to 500 nM |  |  | 1000 to 5000 nM | 100 to 500 nM |
| CCO[C@@H]([C@H]1C[C@@H](C)[C@H]2[C@H](O1)[C@H](O)[C@@]1(C)[C@@H]3CC[C@H]4C(C)(C)[C@@H](OC(=O)NCCN5CCN(C6CCC6)CC5)CC[C@@]45C[C@@]35CC[C@]21C)C(C)(C)O [Compound I-19] |  | 100 to 500 nM |  |  |  | 100 to 500 nM |
| CCO[C@@H]([C@H]1C[C@@H](C)[C@H]2[C@H](O1)[C@H](O)[C@@]1(C)[C@@H]3CC[C@H]4C(C)(C)[C@@H](OC(=O)N5CC(N6CCC6)C5)CC[C@@]45C[C@@]35CC[C@]21C)C(C)(C)O [Compound I-20] | 100 to 500 nM | < 100 nM |  |  |  |  |
| CCO[C@@H]([C@H]1C[C@@H](C)[C@H]2[C@H](O1)[C@H](O)[C@@]1(C)[C@@H]3CC[C@H]4C(C)(C)[C@@H](OC(=O)N5CC(N6CC(OC)C6)C5)CC[C@@]45C[C@@]35CC[C@]21C)C(C)(C)O [Compound I-21] | 501 to 1000 nM | 100 to 500 nM |  |  |  | 100 to 500 nM |
| CCO[C@@H]([C@H]1C[C@@H](C)[C@H]2[C@H](O1)[C@H](O)[C@@]1(C)[C@@H]3CC[C@H]4C(C)(C)[C@@H](OC(=O)NC5CN(C6CN(C7CCC7)C6)C5)CC[C@@]45C[C@@]35CC[C@]21C)C(C)(C)O [Compound I-23] | 501 to 1000 nM | 100 to 500 nM |  |  |  |  |
| CCO[C@@H]([C@H]1C[C@@H](C)[C@H]2[C@H](O1)[C@H](O)[C@@]1(C)[C@@H]3CC[C@H]4C(C)(C)[C@@H](OC(=O)NCCN5CCN(CC(F)F)CC5)CC[C@@]45C[C@@]35CC[C@]21C)C(C)(C)O [Compound I-24] |  | 100 to 500 nM |  |  | 1000 to 5000 nM | 100 to 500 nM |
